Results from patent publication US8952024B2, “Herbicidal pyrimidone derivatives” (E I du Pont de Nemours and Company, priority 2009, dated 2015).
Like-named read-outs stand apart in the source and are kept apart here.

Columns and labels:
Type in all cases: in vivo
[1] = system: johnsongrass (Sorghum halepense); assay: Test B pre-/postemergence plant response; conditions: Sorghum halepense, read-out: Plant response rating, Johnsongrass; for pest or weed control at 125 g/ha: 125 g ai/ha
In short: (§1)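 Greenhouse herbicide screen. Pre- and postemergence (1- to 4-leaf) spray of compound in solvent/surfactant mixture; loam–sand soil for pre, peat/vermiculite medium for post. Visual control rating 0–100 at 13 to 15 days after treatment.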

soybean (Glycine max) = assay: Test B pre-/postemergence plant response; conditions: for plant injury at 31 g/ha: 31 g ai/ha; for plant injury at 62 g/ha: 62 g ai/ha; for plant injury at 125 g/ha: 125 g ai/ha
In short: as §1

[2] = system: giant foxtail (Setaria faberii); assay: Test B pre-/postemergence plant response; conditions: for pest or weed control at 31 g/ha: 31 g ai/ha; for pest or weed control at 62 g/ha: 62 g ai/ha; for pest or weed control at 125 g/ha: 125 g ai/ha
In short: as §1

kochia (Kochia scoparia) = assay: Test B pre-/postemergence plant response; conditions: for pest or weed control at 31 g/ha: 31 g ai/ha; for pest or weed control at 62 g/ha: 62 g ai/ha; for pest or weed control at 125 g/ha: 125 g ai/ha
In short: as §1

[3] = system: winter barley (Hordeum vulgare); assay: Test B postemergence plant response; conditions: Hordeum vulgare, post-emergence, Postemergence, read-out: Plant response rating, Barley
In short: (§2)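 Visual ratings from 0 (no effect) to 100 (complete control), made against controls 13–15 days after treatment, kept in a greenhouse. Compounds were applied postemergence to potted plants at the 1- to 4-leaf stage (2–18 cm).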

[4] = system: windgrass (Apera spica-venti); assay: Test B postemergence plant response; conditions: Apera spica-venti, post-emergence, 360 h, Postemergence, read-out: Plant response rating, Windgrass
In short: as §2

[5] = system: canarygrass (Phalaris minor); assay: Test B postemergence plant response; conditions: Phalaris minor, post-emergence, 360 h, Postemergence, read-out: Plant response rating, Canarygrass
In short: as §2

[6] = system: chickweed (Stellaria media); assay: Test B postemergence plant response; conditions: Stellaria media, post-emergence, 360 h, Postemergence, read-out: Plant response rating, Chickweed
In short: as §2

[7] = Glycine max, pre-emergence, Preemergence, scale 0 to 100 (0 no effect, 100 complete control), read-out: Plant response rating, Soybean
[8] = Preemergence, 250 g ai/ha, 0 to 100 scale
[9] = Setaria faberi, pre-emergence, Preemergence, scale 0 to 100 (0 no effect, 100 complete control), read-out: Plant response rating, Foxtail, Giant
[10] = Bassia scoparia, pre-emergence, Preemergence, scale 0 to 100 (0 no effect, 100 complete control), read-out: Plant response rating, Kochia
[11] = 31 g ai/ha, 0 to 100 scale (0 no effect, 100 complete control)
[12] = 62 g ai/ha, scale 0 to 100 (0 no effect, 100 complete control)
[13] = 125 g ai/ha, scale 0 (no effect) to 100 (complete control), 13 to 15 days
[14] = 250 g ai/ha, scale 0 to 100 (0 no effect, 100 complete control), 13 to 15 days

Question: How did the pest or weed control at 125 g/ha ([1]; post-emergence, Postemergence, scale 0 (no effect) to 100 (complete control), 13 to 15 days) turn out when `COCCn1c(-c2cc(F)cc(F)c2)ncc(C(=O)C2=C(O)C3CCC(C3)C2=O)c1=O` (stereo not drawn) [Compound 243, 2-(3,5-difluorophenyl)-5-[(2-hydroxy-4-oxobicyclo[3.2.1]oct-2-en-3-yl)carbonyl]-3-(2-methoxyethyl)-4(3H)-pyrimidinone] was run?
Answer: 100%

Question: And the pest or weed control at 250 g/ha ([1]; post-emergence, Postemergence, 250 g ai/ha, scale 0 to 100 (0 no effect, 100 complete control), 13 to 15 days)?
Answer: 100%

Question: And the pest or weed control at 31 g/ha ([1]; pre-emergence, Preemergence, 31 g ai/ha, scale 0 to 100 (0 no effect, 100 complete control))?
Answer: 70%

Question: And the pest or weed control at 62 g/ha ([1]; pre-emergence, Preemergence, 62 g ai/ha, scale 0 to 100 (0 no effect, 100 complete control))?
Answer: 95%

Question: What about the pest or weed control at 125 g/ha ([1]; pre-emergence, Preemergence, scale 0 to 100, 0 no effect, 100 complete control) of the same compound?
Answer: 95%

Question: And the plant injury at 31 g/ha (soybean (Glycine max); Glycine max, post-emergence, Postemergence, 0 to 100 scale (0 no effect, 100 complete control), read-out: Plant response rating, Soybean)?
Answer: 95%

Question: And the plant injury at 62 g/ha (soybean (Glycine max); Glycine max, post-emergence, Postemergence, scale 0 to 100 (0 no effect, 100 complete control), read-out: Plant response rating, Soybean)?
Answer: 98%

Question: And the plant injury at 125 g/ha (soybean (Glycine max); Glycine max, post-emergence, Postemergence, scale 0 (no effect) to 100 (complete control), 13 to 15 days, read-out: Plant response rating, Soybean)?
Answer: 100%

Question: What about the plant injury at 250 g/ha (soybean (Glycine max); Glycine max, post-emergence, Postemergence, 250 g ai/ha, scale 0 to 100 (0 no effect, 100 complete control), 13 to 15 days, read-out: Plant response rating, Soybean) of the same compound?
Answer: 100%

Question: And the plant injury at 31 g/ha (soybean (Glycine max); [7])?
Answer: 65%

Question: What about the plant injury at 62 g/ha (soybean (Glycine max); [7]) of the same compound?
Answer: 75%

Question: And the plant injury at 125 g/ha (soybean (Glycine max); Glycine max, pre-emergence, Preemergence, scale 0 to 100, 0 no effect, 100 complete control, read-out: Plant response rating, Soybean)?
Answer: 85%

Question: And the “Soybean plant response rating” value (soybean (Glycine max); [8])?
Answer: 95

Question: And the “Foxtail, Giant plant response rating” value [2, 8]?
Answer: 95

Question: And the pest or weed control at 31 g/ha ([2]; Setaria faberi, post-emergence, Postemergence, 0 to 100 scale (0 no effect, 100 complete control), read-out: Plant response rating, Foxtail, Giant)?
Answer: 95%

Question: What about the pest or weed control at 62 g/ha ([2]; Setaria faberi, post-emergence, Postemergence, scale 0 to 100 (0 no effect, 100 complete control), read-out: Plant response rating, Foxtail, Giant) of the same compound?
Answer: 95%

Question: And the pest or weed control at 125 g/ha ([2]; Setaria faberi, post-emergence, Postemergence, scale 0 (no effect) to 100 (complete control), 13 to 15 days, read-out: Plant response rating, Foxtail, Giant)?
Answer: 98%

Question: What about the pest or weed control at 250 g/ha ([2]; Setaria faberi, post-emergence, Postemergence, 250 g ai/ha, scale 0 to 100 (0 no effect, 100 complete control), 13 to 15 days, read-out: Plant response rating, Foxtail, Giant) of the same compound?
Answer: 98%

Question: And the pest or weed control at 31 g/ha [2, 9]?
Answer: 55%

Question: What about the pest or weed control at 62 g/ha [2, 9] of the same compound?
Answer: 85%

Question: And the pest or weed control at 125 g/ha ([2]; Setaria faberi, pre-emergence, Preemergence, scale 0 to 100, 0 no effect, 100 complete control, read-out: Plant response rating, Foxtail, Giant)?
Answer: 95%

Question: What about the pest or weed control at 31 g/ha (kochia (Kochia scoparia); Bassia scoparia, post-emergence, Postemergence, 0 to 100 scale (0 no effect, 100 complete control), read-out: Plant response rating, Kochia) of the same compound?
Answer: 85%

Question: What about the pest or weed control at 62 g/ha (kochia (Kochia scoparia); Bassia scoparia, post-emergence, Postemergence, scale 0 to 100 (0 no effect, 100 complete control), read-out: Plant response rating, Kochia) of the same compound?
Answer: 95%

Question: What about the pest or weed control at 125 g/ha (kochia (Kochia scoparia); Bassia scoparia, post-emergence, Postemergence, scale 0 (no effect) to 100 (complete control), 13 to 15 days, read-out: Plant response rating, Kochia) of the same compound?
Answer: 100%

Question: What about the pest or weed control at 250 g/ha (kochia (Kochia scoparia); Bassia scoparia, post-emergence, Postemergence, 250 g ai/ha, scale 0 to 100 (0 no effect, 100 complete control), 13 to 15 days, read-out: Plant response rating, Kochia) of the same compound?
Answer: 100%

Question: And the pest or weed control at 31 g/ha (kochia (Kochia scoparia); [10])?
Answer: 15%

Question: And the pest or weed control at 62 g/ha (kochia (Kochia scoparia); [10])?
Answer: 20%

Question: What about the pest or weed control at 125 g/ha (kochia (Kochia scoparia); Bassia scoparia, pre-emergence, Preemergence, scale 0 to 100, 0 no effect, 100 complete control, read-out: Plant response rating, Kochia) of the same compound?
Answer: 90%

Question: What about the “Kochia plant response rating” value (kochia (Kochia scoparia); [8]) of the same compound?
Answer: 100

Question: What about the plant injury at 31 g/ha [3, 11] of the same compound?
Answer: 60%

Question: And the plant injury at 62 g/ha [3, 12]?
Answer: 90%

Question: And the plant injury at 125 g/ha [3, 13]?
Answer: 95%

Question: What about the plant injury at 250 g/ha [3, 14] of the same compound?
Answer: 95%

Question: What about the pest or weed control at 31 g/ha [4, 11] of the same compound?
Answer: 80%

Question: What about the pest or weed control at 62 g/ha [4, 12] of the same compound?
Answer: 90%

Question: And the pest or weed control at 125 g/ha [4, 13]?
Answer: 98%

Question: What about the pest or weed control at 250 g/ha [4, 14] of the same compound?
Answer: 100%

Question: And the pest or weed control at 31 g/ha [5, 11]?
Answer: 90%

Question: What about the pest or weed control at 62 g/ha [5, 12] of the same compound?
Answer: 98%

Question: What about the pest or weed control at 125 g/ha [5, 13] of the same compound?
Answer: 100%

Question: What about the pest or weed control at 250 g/ha [5, 14] of the same compound?
Answer: 100%

Question: What about the pest or weed control at 31 g/ha [6, 11] of the same compound?
Answer: 80%

Question: What about the pest or weed control at 62 g/ha [6, 12] of the same compound?
Answer: 100%

Question: And the pest or weed control at 125 g/ha [6, 13]?
Answer: 100%

Question: What about the pest or weed control at 250 g/ha [6, 14] of the same compound?
Answer: 100%
